Like-named read-outs stand apart in the source and are kept apart here.
How the values were obtained:
SARS-CoV-2 = type: cell-based; settings: concentration 90% (solution), 63% (ethanol); for Virus Titer: virus control 3.5

Structure (SMILES): CCO [Ethanol]
- toxicity to cells (Vero 76 cells): toxic to cells
- LRV (log reduction value) compared to the virus control (SARS-CoV-2; Contact Time 3 min): >1.8
- Virus Titer (SARS-CoV-2; Contact Time 3 min): <1.7 Log10 CCID50 of virus per 0.1 mL
- LRV (log reduction value) compared to the virus control (SARS-CoV-2; Contact Time <1 min): >1.8
- Virus Titer (SARS-CoV-2; Contact Time <1 min): <1.7 Log10 CCID50 of virus per 0.1 mL

— patent US12605402B2, “Therapeutic uses of oxidizing hypotonic acid solutions” (APR Applied Pharma Research SA, priority 2019, dated 2026)
